In patent US10787430B2, “Hemoglobin modifier compounds and uses thereof” (FronThera U.S. Pharmaceuticals LLC, priority 2016, dated 2020):

What was measured:
[1] = biological target: T1, hemoglobin (normal human adult blood) (Homo sapiens, UniProt P68871+P69905); assay: Time-dependent oxygen equilibrium curve (OEC) studies in normal whole blood; format: cell-based; conditions: 2 mM compound, 2% DMSO, normal human blood 20% hematocrit, 37° C., 1 h
T1 construct: Normal whole blood was collected from adult healthy donors; from tissue; host or cells: normal human whole blood (red blood cells), adult healthy donors
Procedure: (§1) Materials: Normal whole blood was collected from adult healthy donors at the Virginia Commonwealth University after informed consent. The use of these human samples is in accordance with regulations of the IRB for Protection of Human Subjects. Compounds (50 mM-100 mM concentration in DMSO) were stored at 15° C. or room temperature until use.
The time-dependent OEC studies were conducted on normal human adult blood samples with hematocrit value of 20% in the absence or presence of effectors solubilized in DMSO at final drug and DMSO concentrations of 2 mM and 2%, respectively. […] The mixture was further incubated at 37° C. with shaking. […] After equilibration, the sample was removed by syringe and aspirated into a ABL 700 series table top automated blood gas analyzer (Radiometer America, Inc., Westlake, Ohio) to determine values of total hemoglobin (tHb), methemoglobin (metHb), hematocrit (Hct), pH, partial pressure of oxygen (pO2), and Hb oxygen saturation values (sO2). The measured values of sO2 and pO2 at each partial pressure of oxygen are then subjected to a non-linear regression analysis using the program Scientist (Micromath, Salt Lake City, Utah) with the following equation: […]
This equation was used to calculate P50 and Hill coefficient (N) values. Corresponding control experiments without the test compound (P50control) but containing DMSO were also performed. GBT440 was used as a positive control.

[2] = biological target: T2, hemoglobin (20% hct blood) (Homo sapiens, UniProt P68871+P69905); assay: Dose-dependent whole blood OEC studies; format: cell-based; conditions: 37° C., 1 hr; for delta p50 0.2 mM: 0.2 mM compound; for delta p50 0.5 mM: 0.5 mM compound
T2 construct: Normal whole blood was collected from adult healthy donors; from tissue; host or cells: normal human whole blood (red blood cells), adult healthy donors
Procedure: as §1
To 2 ml 20% hct blood, 0.2 or 0.5 or 1 mM compound was added and kept shaking at 37° C. for 1 hr. OEC analysis was performed as described above to determine partial pressure of oxygen (pO2) and Hb oxygen saturation values (sO2). A control without compound but containing equivalent amount of DMSO was performed (1%). GBT440 was used as a positive control. Table 2 below lists the delta p50% values.

T2 sequence (P69905 2-142 limits assumed): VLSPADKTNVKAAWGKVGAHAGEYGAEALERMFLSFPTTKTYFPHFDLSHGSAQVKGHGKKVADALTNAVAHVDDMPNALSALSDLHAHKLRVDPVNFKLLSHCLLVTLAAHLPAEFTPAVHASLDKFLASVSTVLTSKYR
T2 sequence (P68871 2-147 limits assumed): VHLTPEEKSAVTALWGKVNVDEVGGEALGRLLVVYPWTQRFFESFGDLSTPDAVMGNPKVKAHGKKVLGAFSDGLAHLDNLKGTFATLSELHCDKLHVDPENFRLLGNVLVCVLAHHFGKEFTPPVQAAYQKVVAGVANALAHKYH
T1 sequence (P69905 2-142 limits assumed): as the sequence (P69905 2-142 limits assumed) above
T1 sequence (P68871 2-147 limits assumed): as the sequence (P68871 2-147 limits assumed) above

SMILES	delta p50 [1] [%]	delta p50 0.2 mM [2] [%]	delta p50 0.5 mM [2] [%]
CC(C)n1nccc1-c1nn(C)c(=O)cc1COc1cccc(O)c1C=O [Example 59, 2-hydroxy-6-((3-(1-isopropyl-1H-pyrazol-5-yl)-1-methyl-6-oxo-1,6-dihydropyridazin-4-yl)methoxy)benzaldehyde]	−54	–	–
CC(C)n1nccc1-c1cn(C)c(=O)cc1COc1cccc(O)c1C=O [Example 60, 2-hydroxy-6-((5-(1-isopropyl-1H-pyrazol-5-yl)-1-methyl-2-oxo-1,2-dihydropyridin-4-yl)methoxy)benzaldehyde]	−69	–	–
CC(C)n1nccc1-c1nccc2c1C(Oc1cccc(O)c1C=O)CO2 (stereo not shown) [Example 61g, 2-hydroxy-6-((4-(1-isopropyl-1H-pyrazol-5-yl)-2,3-dihydrofuro[3,2-c]pyridin-3-yl)oxy)benzaldehyde]	−59	–	–
CC(C)n1nccc1-c1nccc2c1[C@@H](Oc1cccc(O)c1C=O)CO2 [Example 62a, (R)-2-hydroxy-6-((4-(1-isopropyl-1H-pyrazol-5-yl)-2,3-dihydrofuro[3,2-c]pyridin-3-yl)oxy)benzaldehyde]	−63	–	–
CC(C)n1nccc1-c1nccc2c1[C@H](Oc1cccc(O)c1C=O)CO2 [Example 62b, (S)-2-hydroxy-6-((4-(1-isopropyl-1H-pyrazol-5-yl)-2,3-dihydrofuro[3,2-c]pyridin-3-yl)oxy)benzaldehyde]	−64	–	–
CC(C)n1nccc1-c1ncsc1COc1cccc(O)c1C=O [Example 65, 2-hydroxy-6-((4-(1-isopropyl-1H-pyrazol-5-yl)thiazol-5-yl)methoxy)benzaldehyde]	–	−11.20	−36.20
CC(C)n1nccc1-c1ocnc1COc1cccc(O)c1C=O [Example 66, 2-hydroxy-6-((5-(1-isopropyl-1H-pyrazol-5-yl)oxazol-4-yl)methoxy)benzaldehyde]	–	−5.70	−16.50
CC(C)n1nccc1-c1ncoc1COc1cccc(O)c1C=O [Example 67, 2-hydroxy-6-((4-(1-isopropyl-1H-pyrazol-5-yl)oxazol-5-yl)methoxy)benzaldehyde]	–	−6.80	−25.30
Cc1nc(COc2cccc(O)c2C=O)c(-c2ccnn2C(C)C)o1 [Example 68, 2-hydroxy-6-((5-(1-isopropyl-1H-pyrazol-5-yl)-2-methyloxazol-4-yl)methoxy)benzaldehyde]	–	−8.70	−13.00
CC(C)n1nccc1-c1ncn(C)c1COc1cccc(O)c1C=O [Example 69, 2-hydroxy-6-((4-(1-isopropyl-1H-pyrazol-5-yl)-1-methyl-1H-imidazol-5-yl)methoxy)benzaldehyde]	–	−21.40	−41.80
Cc1nc(-c2ccnn2C(C)C)c(COc2cccc(O)c2C=O)s1 [Example 70, 2-hydroxy-6-((4-(1-isopropyl-1H-pyrazol-5-yl)-2-methylthiazol-5-yl)methoxy)benzaldehyde]	–	−10.40	−21.90
[2H]C([2H])(Oc1cccc(O)c1C=O)c1nccnc1-n1ccnc1C(C)C [Example 72, 2-hydroxy-6-((3-(2-isopropyl-1H-imidazol-1-yl)pyrazin-2-yl)methoxy-d2)benzaldehyde]	–	−5.10	−16.80
[2H]C([2H])(Oc1cccc(O)c1C=O)c1c(F)ccnc1-c1ccnn1C(C)C [Example 75, 2-((4-fluoro-2-(1-isopropyl-1H-pyrazol-5-yl)pyridin-3-yl)methoxy-d2)-6-hydroxybenzaldehyde]	–	−13.0	−53.7

More lines, now with the values ahead:

delta p50 [1] [%]	delta p50 0.2 mM [2] [%]	delta p50 0.5 mM [2] [%]	SMILES
−78	–	–	CC(C)n1nccc1-c1ncccc1COc1ccc2c(c1C=O)CCO2 [Example 2, 5-((2-(1-isopropyl-1H-pyrazol-5-yl)pyridin-3-yl)methoxy)-2,3-dihydrobenzofuran-4-carbaldehyde]
−62	–	–	CC(C)n1nccc1-c1ncccc1COc1cc2c(cc1C=O)OCC2 [Example 3, 5-((2-(1-isopropyl-1H-pyrazol-5-yl)pyridin-3-yl)methoxy)-2,3-dihydrobenzofuran-6-carbaldehyde]
−51	–	–	CC(C)n1nccc1-c1ncccc1COc1ccc2c(c1C=O)OCC2 [Example 4, 6-((2-(1-isopropyl-1H-pyrazol-5-yl)pyridin-3-yl)methoxy)-2,3-dihydrobenzofuran-7-carbaldehyde]
−77	–	–	CC(C)n1nccc1-c1ncccc1COc1ccc2ccoc2c1C=O [Example 5, 6-((2-(1-isopropyl-1H-pyrazol-5-yl)pyridin-3-yl)methoxy)benzofuran-7-carbaldehyde]
−66	–	–	CC(C)n1nccc1-c1ncccc1COc1ccc2c(c1C=O)OCO2 [Example 6, 5-((2-(1-isopropyl-1H-pyrazol-5-yl)pyridin-3-yl)methoxy)benzo[d][1,3]dioxole-4-carbaldehyde]
−59	–	–	CC(C)n1nccc1-c1ncccc1COc1ccc2c(c1C=O)OCCO2 [Example 7, 6-((2-(1-isopropyl-1H-pyrazol-5-yl)pyridin-3-yl)methoxy)-2,3-dihydrobenzo[b][1,4]dioxine-5-carbaldehyde]
−68	–	–	CC(C)n1nccc1-c1ncccc1COc1ccc2c(c1C=O)OC(F)(F)O2 [Example 8, 2,2-difluoro-5-((2-(1-isopropyl-1H-pyrazol-5-yl)pyridin-3-yl)methoxy)benzo[d][1,3]dioxole-4-carbaldehyde]
−64	–	–	CC(C)n1nccc1-c1ncccc1COc1ccc2c(c1C=O)C(O)C(F)(F)O2 (stereo not shown) [Example 9, 2,2-difluoro-3-hydroxy-5-((2-(1-isopropyl-1H-pyrazol-5-yl)pyridin-3-yl)methoxy)-2,3-dihydrobenzofuran-4-carbaldehyde]
−68	–	–	CC(C)n1nccc1-c1ncccc1COc1ccc2c(c1C=O)C(O)C(F)(F)C2 (stereo not shown) [Example 10, 2,2-difluoro-3-hydroxy-5-((2-(1-isopropyl-1H-pyrazol-5-yl)pyridin-3-yl)methoxy)-2,3-dihydro-1H-indene-4-carbaldehyde]
−9	–	–	CC(C)n1nccc1-c1ncccc1COc1ccn2nnnc2c1C=O [Example 13, 7-((2-(1-isopropyl-1H-pyrazol-5-yl)pyridin-3-yl)methoxy)tetrazolo[1,5-a]pyridine-8-carbaldehyde]
−63	–	–	CC(C)n1nccc1-c1ncccc1COc1ccc2ocnc2c1C=O [Example 14, 5-((2-(1-isopropyl-1H-pyrazol-5-yl)pyridin-3-yl)methoxy)benzo[d]oxazole-4-carbaldehyde]
−81	–	–	CC(C)n1nccc1-c1ncccc1COc1ccc2ncoc2c1C=O [Example 15, 6-((2-(1-isopropyl-1H-pyrazol-5-yl)pyridin-3-yl)methoxy)benzo[d]oxazole-7-carbaldehyde]
−74	–	–	CC(C)n1nccc1-c1ncccc1COc1ccc2sccc2c1C=O [Example 20, 5-((2-(1-isopropyl-1H-pyrazol-5-yl)pyridin-3-yl)methoxy)benzo[b]thiophene-4-carbaldehyde]
−72	–	–	CC(C)n1nccc1-c1ncccc1COc1ccc2c(c1C=O)CCS2(=O)=O [Example 21, 5-((2-(1-isopropyl-1H-pyrazol-5-yl)pyridin-3-yl)methoxy)-2,3-dihydrobenzo[b]thiophene-4-carbaldehyde 1,1-dioxide]
−62	–	–	CC(C)n1nccc1-c1ncccc1CSc1cccc(O)c1C=O [Example 23, 2-hydroxy-6-(((2-(1-isopropyl-1H-pyrazol-5-yl)pyridin-3-yl)methyl)thio)benzaldehyde]
−47	–	–	[2H]C(=O)c1c(O)cccc1OCc1cccnc1-c1ccnn1C(C)C [Example 24]
−85	–	–	[2H]C([2H])([2H])C(n1nccc1-c1ncccc1COc1cccc(O)c1C=O)C([2H])([2H])[2H] [Example 30, 2-hydroxy-6-((2-(1-(propan-2-yl-1,1,1,3,3,3-d6)-1H-pyrazol-5-yl)pyridin-3-yl)methoxy)benzaldehyde]
–	−15.8	−48.4	CC(C)n1nccc1-c1nccc(F)c1COc1cccc(O)c1C=O [Example 74, 2-((4-fluoro-2-(1-isopropyl-1H-pyrazol-5-yl)pyridin-3-yl)methoxy)-6-hydroxybenzaldehyde]
